In ChEMBL document CHEMBL1151340, “Antimicrobial agents from higher plants. Antimicrobial isoflavanoids and related substances from Glycyrrhiza glabra L. var. typica” (1980):
≈ marks a conversion by molar mass, not a printed value. Calls of active or inactive are those of the source. The calls are words filed in the database; no cut-off is given here.

What was measured:
[1] = system: Staphylococcus aureus; experiment: Antibacterial activity against Staphylococcus aureus ATCC 13709 by agar-dilution streak method; type: functional
[2] = system: Escherichia coli; experiment: Antibacterial activity against Escherichia coli ATCC 9637 at 100 mcg/ml by agar-dilution streak method; type: functional, organism-based
[3] = system: Salmonella enterica subsp. enterica serovar Gallinarum; experiment: Antibacterial activity against Salmonella gallinarum ATCC 9184 at 100 mcg/ml by agar-dilution streak method; type: functional, organism-based
[4] = system: Klebsiella pneumoniae; experiment: Antibacterial activity against Klebsiella pneumoniae ATCC 10031 at 100 mcg/ml by agar-dilution streak method; type: functional, organism-based
[5] = system: Mycolicibacterium smegmatis; experiment: Antibacterial activity against Mycobacterium smegmatis ATCC 607 by agar-dilution streak method; type: functional
[6] = system: Candida albicans; experiment: Antifungal activity against Candida albicans ATCC 10231 at 100 mcg/ml by agar-dilution streak method; type: functional, organism-based
[7] = system: Mycolicibacterium smegmatis; experiment: Antibacterial activity against Mycobacterium smegmatis ATCC 607 at 100 mcg/ml by agar-dilution streak method; type: functional
[8] = system: Staphylococcus aureus; experiment: Antibacterial activity against Staphylococcus aureus ATCC 13709 at 100 mcg/ml by agar-dilution streak method; type: functional, organism-based
[9] = system: Escherichia coli; experiment: Antibacterial activity against Escherichia coli ATCC 9637 by agar-dilution streak method; type: functional
[10] = system: Candida albicans; experiment: Antifungal activity against Candida albicans ATCC 10231 by agar-dilution streak method; type: functional
[11] = system: Salmonella enterica subsp. enterica serovar Gallinarum; experiment: Antibacterial activity against Salmonella gallinarum ATCC 9184 by agar-dilution streak method; type: functional
[12] = system: Klebsiella pneumoniae; experiment: Antibacterial activity against Klebsiella pneumoniae ATCC 10031 by agar-dilution streak method; type: functional

MIC [1] | MIC [5] | MIC [10] | MIC [7] | MIC [9] | MIC [11] | MIC [12] | SMILES | Activity [2] | Activity [3] | Activity [4] | Activity [6] | Activity [7] | Activity [8] | Activity [9]
6.25 µg/mL (≈ 15.3 µM) | 6.25 µg/mL (≈ 15.3 µM) | – | – | – | – | – | CC(C)=CCc1cc([C@H]2Oc3c(ccc(O)c3CC=C(C)C)C(=O)[C@@H]2O)ccc1O | inactive | inactive | inactive | inactive | – | – | –
50 µg/mL (≈ 141 µM) | – | – | – | – | – | – | COc1c(O)ccc([C@@H]2COc3c(ccc4c3C=CC(C)(C)O4)C2)c1O | inactive | inactive | inactive | inactive | inactive | – | –
6.25 µg/mL (≈ 18.5 µM) | 3.12 µg/mL (≈ 9.22 µM) | – | – | – | – | – | COc1ccc([C@@H]2COc3c(ccc4c3C=CC(C)(C)O4)C2)c(O)c1 | inactive | inactive | inactive | inactive | – | – | –
– | – | – | – | – | – | – | COc1ccc(-c2coc3cc(O)ccc3c2=O)cc1 | inactive | inactive | inactive | inactive | inactive | inactive | –
25 µg/mL (≈ 77.6 µM) | 25 µg/mL (≈ 77.6 µM) | – | – | – | – | – | CC1(C)C=Cc2c(O)ccc(C3=Cc4ccc(O)cc4OC3)c2O1 [GLABRENE] | inactive | inactive | inactive | inactive | – | – | –
6.25 µg/mL (≈ 19.3 µM) | 6.25 µg/mL (≈ 19.3 µM) | 25 µg/mL (≈ 77.1 µM) | – | – | – | – | CC1(C)C=Cc2c(ccc3c2OC[C@@H](c2ccc(O)cc2O)C3)O1 [GLABRIDIN] | inactive | inactive | inactive | – | – | inactive | inactive
1.56 µg/mL (≈ 3.97 µM) | 1.56 µg/mL (≈ 3.97 µM) | – | – | – | – | – | CC(C)=CCc1cc([C@@H]2CC(=O)c3ccc(O)c(CC=C(C)C)c3O2)ccc1O [GLABROL] | inactive | inactive | inactive | inactive | – | – | –
3.12 µg/mL (≈ 7.95 µM) | 3.12 µg/mL (≈ 7.95 µM) | – | – | – | – | – | CC(C)=CCc1c(O)ccc([C@@H]2COc3c(ccc4c3C=CC(C)(C)O4)C2)c1O [HISPAGLABRIDIN A] | inactive | inactive | inactive | inactive | – | – | –
6.25 µg/mL (≈ 16 µM) | 3.12 µg/mL (≈ 7.99 µM) | – | – | – | – | – | CC1(C)C=Cc2c(ccc([C@@H]3COc4c(ccc5c4C=CC(C)(C)O5)C3)c2O)O1 [HISPAGLABRIDIN B] | inactive | inactive | inactive | inactive | – | – | –
25 µg/mL (≈ 77.1 µM) | – | – | 12.5 µg/mL (≈ 38.5 µM) | – | – | – | CC1(C)C=Cc2c(ccc([C@@H]3COc4cc(O)ccc4C3)c2O)O1 [PHASEOLLINISOFLAVAN] | inactive | inactive | inactive | inactive | – | – | –
5 µg/mL | 1.25 µg/mL | – | – | 5 µg/mL | 50 µg/mL | 2.5 µg/mL | CN[C@@H]1[C@H](O[C@H]2[C@H](O[C@H]3[C@H](O)[C@@H](O)[C@H](N=C(N)N)[C@@H](O)[C@@H]3N=C(N)N)O[C@@H](C)[C@]2(O)C=O)O[C@@H](CO)[C@H](O)[C@H]1O.CN[C@@H]1[C@H](O[C@H]2[C@H](O[C@H]3[C@H](O)[C@@H](O)[C@H](N=C(N)N)[C@@H](O)[C@@H]3N=C(N)N)O[C@@H](C)[C@]2(O)C=O)O[C@@H](CO)[C@H](O)[C@H]1O.O=S(=O)(O)O.O=S(=O)(O)O.O=S(=O)(O)O [STREPTOMYCIN SULFATE] | – | – | – | inactive | – | – | –
